Test results from patent US4845029A, “Method for the determination of sarcosine creatine or creatinine” (Boehringer Mannheim GmbH, priority 1985, dated 1989).

How the values were obtained:
Assay type in all cases: biochemical
[1] = system: sarcosine oxidase from Chainia purpurogena, crude extract supernatant; assay: KM value for sarcosine in stressing reagent a; settings: 37 °C, pH 7.9, detergent-containing
Protocol: (§1) The KM values for sarcosine (phosphate buffer; TES buffer), measured at 25° C. in various stressing reagents, are 2 to 3 mmol/litre. The Vmax is about 6 U/mg. protein. The followig Table I gives, for various preparations of the enzyme according to the present invention, the KM values for sarcosine measured at 25 and at 37° C. For comparison, there are given the corresponding values for the known Bacillus enzyme.
(§2) 0.15 mole potassium phosphate or 0.1 mole TES/KOH (pH 7.9), 8.6 mmole 2,4,6-tribromo-3-hydroxybenzoic acid, 0.8 mmole 4-aminoantipyrine, 10 μmole potassium ferrocyanide, 5 mmole sodium cholate, 0.5% Lutensol ON 50, 0.2% sodium azide, 0.5 mmole Titriplex III, 2000 U lipase, 2000 U peroxidase and 10000 U ascorbate oxidase, per liter. [Lutensol ON 50 ^R is obtained from BASF AG and is n-decanol-polyglycolether having an average of 5 ethylene glycol units per molecule i.e. CH3 -(CH2)9 -(OCH2 -CH2)5 -OH. Titriplex III is the disodium salt of ethylenediaminetetracetic acid and can be obtained from Merck.]

[2] = system: known sarcosine oxidase from Bacillus sp. (comparison enzyme); assay: KM value for sarcosine in stressing reagent a; settings: pH 7.9, detergent-containing
Protocol: as §1, §2

[3] = system: sarcosine oxidase from Streptomyces flocculus (DSM 40 327), crude extract supernatant; assay: KM value for sarcosine in stressing reagent a; settings: 37 °C, TES buffer, pH 7.9, detergent-containing
Protocol: as §1, §2

[4] = system: sarcosine oxidase (E.C. 1.5.3.1) from Chainia purpurogena (DSM 43 156), pure enzyme; assay: KM value for sarcosine in stressing reagent a; settings: pH 7.9, detergent-containing
Protocol: as §1, §2

[5] = system: sarcosine oxidase according to the present invention, obtainable from Streptomycetaceae; assay: KM and Vmax for sarcosine; settings: substrate sarcosine
Protocol: In contradistinction thereto, the KM values of the known sarcosine oxidases which are sufficiently stable for these determinations are, under these conditions, abou 16 to 20 mmol/liter.
as §1

Compound: CNCC(=O)O [sarcosine]
- Km ([1]; TES buffer): 3 mM
- Km ([1]; phosphate buffer): 3 mM
- Km ([2]; 25 °C, TES buffer): 20 mM
- Km ([2]; 25 °C, phosphate buffer): 16 mM
- Km ([2]; 37 °C, TES buffer): 20 mM
- Km ([2]; 37 °C, phosphate buffer): 18 mM
- Km [3]: 3.5 mM
- Km ([4]; 25 °C, TES buffer): 2.8 mM
- Km ([4]; 25 °C, phosphate buffer): 2 mM
- Km ([4]; 37 °C, TES buffer): 3 mM
- Km ([4]; 37 °C, phosphate buffer): 3.5 mM
- Vmax [5]: about 6 U/mg. protein
